# Measured values from patent publication US20120202787A1, “Novel Heteroaryl Imidazoles And Heteroaryl Triazoles As Gamma-Secretase Modulators” (Pfizer Inc., priority 2009, published 2012).
# System: γ-secretase (production of amyloid beta protein Aβ (1-42))
# Experiment: Cell-based γ-secretase assay with ELISA readout (Aβ (1-42) production)
# Set-up: species or system human WT-APP overexpressing CHO cells
# Conditions: Geometric mean of at least 2 determinations; Table 3; read-out: Aβ 42 IC50 (μM)*
# Protocol: Cell-Based γ-Secretase Assay with ELISA Readout
# The ability of compounds to modulate production of amyloid beta protein Aβ (1-42) was determined using human WT-APP overexpressing CHO cells. Cells were plated at 22,000 cells/100 μL well in 96 well tissue culture treated, clear plates (Falcon) in DMEM/F12 based medium and incubated for 24 hours at 37° C. Compounds for testing were diluted in 100% DMSO to achieve an eleven points, half log, dose response for IC50 determinations. Compounds were added in fresh medium to achieve 1% final DMSO. Appropriate vehicle and inhibitor controls were added to obtain maximum and minimum inhibition values for the assay before the plates were incubated for about 24 hours at 37° C.
# Coating of ELISA assay plates was initiated by addition of 50 μL/well of an in-house Aβ (1-42) specific antibody at (4 μg/mL) in 0.1 M NaHCO3 (pH 9.0) into black 384-well Maxisorp® plates (Nunc) and incubated overnight at 4° C. The capture antibody was then aspirated from the ELISA assay plates and 100 μL/well of Blocking Buffer (Dulbecco's PBS, 1.5% BSA (Sigma A7030)) added. Ambient temperature incubation was allowed to proceed for a minimum of two hours before washing 2×100 μL with Wash Buffer (Dulbecco's PBS, 0.05% Tween 20). Assay Buffer (Dulbecco's PBS, 1.0% BSA (Sigma A7030), 0.05% Tween 20) 20 μL/well was then added.
# After incubation overnight at 37° C., 5% CO2, 40 μL (in duplicate) of experimental conditioned media were transferred into wells of the blocked ELISA plates containing the capture antibody, followed by overnight incubation at 4° C. Cell toxicity was measured in the corresponding cells after removal of the media for the Aβ (1-42) assay by a colorimetric cell proliferation assay (CellTiter 96® AQueous One Solution Cell Proliferation Assay, Promega) according to the manufacturer's instructions.
# After overnight incubation of the ELISA assay plates at 4° C., unbound Aβ peptides were removed thorough (4×100 μL) washes with Wash Buffer. Europium (Eu) labeled (custom labeled, Perkin Elmer) Aβ (1-16) 6e10 Monoclonal Antibody (Covance #SIG-39320 was added, (50 μL /well Eu-6e10 @ 1:5000, 20 uM EDTA) in Assay Buffer. Incubation at ambient temperature for a minimum of 2 hours was followed by (4×100 μL) washes with Wash Buffer, before 50 μL/well of Delfia Enhancement Solution (Perkin Elmer) was added. Following a one hour ambient temperature incubation, the plates were read on an EnVision plate reader (Perkin Elmer) using standard DELFIA TRF settings. Data analysis including inhibitory IC50 determination was performed using nonlinear regression fit analysis (in-house software) and the appropriate plate mean values for the maximum and minimum inhibition controls.
row,SMILES,IC50 [µM]
1,"COc1nc(C(=O)NC2COc3ccc(Cl)c(F)c32)ccc1-n1cnc(C)c1 (stereo not drawn) [Example 49, N-[5-chloro-4-fluoro-2,3-dihydro-1-benzofuran-3-yl]-6-methoxy-5-(4-methyl-1H-imidazol-1-yl)pyridine-2-carboxamide]",0.194
2,"COc1nc(C(=O)NC2COc3ccc(Cl)c(C)c32)ccc1-n1cnc(C)c1 (stereo not drawn) [Example 51, N-(5-chloro-4-methyl-2,3-dihydro-1-benzofuran-3-yl)-6-methoxy-5-(4-methyl-1H-imidazol-1-yl)pyridine-2-carboxamide]",0.234
3,"COc1nc(C(=O)N[C@H]2COc3ccc(Cl)cc32)ccc1-n1cnc(C)c1 [Example 53, N-[(3R)-5-chloro-2,3-dihydro-1-benzofuran-3-yl]-6-methoxy-5-(4-methyl-1H-imidazol-1-yl)pyridine-2-carboxamide]",0.373
4,"COc1nc(C(=O)NC2COc3c(C)cc(Cl)cc32)ccc1-n1cnc(C)c1 (stereo not drawn) [Example 52, N-(5-chloro-7-methyl-2,3-dihydro-1-benzofuran-3-yl)-6-methoxy-5-(4-methyl-1H-imidazol-1-yl)pyridine-2-carboxamide]",0.364
5,"COc1nc(C(=O)N2CC(COc3cccc4ccccc34)C2)ccc1-n1cnc(C)c1 [Example 48, 2-methoxy-3-(4-methyl-1H-imidazol-1-yl)-6-({3-[(1-naphthyloxy)methyl]azetidin-1-yl}carbonyl) pyridine]",0.096

# Same assay, conditions: human WT-APP overexpressing CHO cells; Aβ (1-42) ELISA; about 24 hours at 37° C.; free base or salt; read-out: Aβ 42B IC50 (μM) (Geometric Mean of 2-8 Determinations)
row,SMILES,IC50 [µM]
1,"COc1nc(C(=O)N2CC[C@@H](Oc3ccccc3C(F)(F)F)C2)cnc1-n1cnc(C)c1 [Example 9, 3-methoxy-2-(4-methyl-1H-imidazol-1-yl)-5-({(3R)-3-[2-(trifluoromethyl)-phenoxy]pyrrolidin-1-yl}carbonyl)pyrazine]",0.643
2,"COc1nc(C(=O)NCC2(c3ccccc3)CCCC2)cnc1-n1cnc(C)c1 [Example 2, 6-Methoxy-5-(4-methyl-1H-imidazol-1-yl)-N-[(1-phenylcyclopentyl)methyl]pyrazine-2-carboxamide]",2.29
3,"COc1nc(C(=O)N[C@H]2CCc3ccc(Cl)cc32)ccc1-n1cnc(C)c1 [Example 40, N-[(1S)-6-chloro-2,3-dihydro-1H-inden-1-yl]-6-methoxy-5-(4-methyl-1H-imidazol-1-yl)pyridine-2-carboxamide]",0.259
4,"COc1nc(C(=O)NCCc2nc3ccc(Cl)cc3o2)cnc1-n1cnc(C)c1 [Example 12, N-[2-(6-chloro-1,3-benzoxazol-2-yl)ethyl]-6-methoxy-5-(4-methyl-1H-imidazol-1-yl)pyrazine-2-carboxamide]",1.43
5,"COc1nc(C(=O)NCC(C)(C)c2ccc(F)cc2)ccc1-n1cnc(C)c1 [Example 29, N-[2-(4-fluorophenyl)-2-methylpropyl]-6-methoxy-5-(4-methyl-1H-imidazol-1-yl)pyridine-2-carboxamide]",0.502
6,"COc1cc(C(=O)NCC2(c3ccc(C(F)(F)F)cc3)CCOCC2)ncc1-n1cnc(C)c1 [Example 23, 4-methoxy-5-(4-methyl-1H-imidazol-1-yl)-N-({4-[4-(trifluoromethyl)phenyl]-tetrahydro-2H-pyran-4-yl}methyl)pyridine-2-carboxamide]",17.2
7,"COc1nc(C(=O)NCc2ccc(F)c(C3CC3)c2)ccc1-n1cnc(C)c1 [Example 42, N-(3-cyclopropyl-4-fluorobenzyl)-6-methoxy-5-(4-methyl-1H-imidazol-1-yl)pyridine-2-carboxamide]",0.319
8,"COc1nc(C(=O)NCC2(c3ccc(F)cc3)CCC2)ccc1-n1cnc(C)c1 [Example 28, N-{[1-(4-fluorophenyl)-cyclobutyl]methyl}-6-methoxy-5-(4-methyl-1H-imidazol-1-yl)pyridine-2-carboxamide]",0.314
9,"COc1nc(C(=O)N2CC[C@@H](Oc3ccccc3C(F)(F)F)C2)ccc1-n1cnc(C)c1 [Example 37, 2-methoxy-3-(4-methyl-1H-imidazol-1-yl)-6-({(3R)-3-[2-(trifluoromethyl)-phenoxy]pyrrolidin-1-yl}carbonyl)pyridine]",0.285
10,"COc1nc(C(=O)NCc2ccc(Cl)cc2Cl)ccc1-n1cnc(C)c1 [Example 44, N-(2,4-dichlorobenzyl)-6-methoxy-5-(4-methyl-1H-imidazol-1-yl)pyridine-2-carboxamide]",0.394
11,"COc1nc(C(=O)NCC2(c3ccccc3)CCCC2)ccc1-n1cnc(C)c1 [Example 25, 6-methoxy-5-(4-methyl-1H-imidazol-1-yl)-N-[(1-phenylcycloentyl)methyl] pyridine-2-carboxamide]",0.316
12,"COc1nc(C(=O)N2CC[C@H](Oc3ccccc3C(F)(F)F)C2)ccc1-n1cnc(C)c1 [Example 36, 2-methoxy-3-(4-methyl-1H-imidazol-1-yl)-6-({(3S)-3-[2-(trifluoromethyl)-phenoxy]pyrrolidin-1-yl}carbonyl)pyridine]",0.207
13,"COc1nc(C(=O)NCC2(c3ccc(F)cc3)CC2)ccc1-n1cnc(C)c1 [Example 5, N-{[1-(4-Fluorophenyl)cyclopropyl]methyl}-6-methoxy-5-(4-methyl-1H-imidazol-1-yl)pyridine-2-carboxamide]",0.34
14,"COc1nc(C(=O)NCc2cc(C)ccc2C)ccc1-n1cnc(C)c1 [Example 38, N-(2,5-dimethylbenzyl)-6-methoxy-5-(4-methyl-1H-imidazol-1-yl)pyridine-2-carboxamide]",0.667
15,"COc1nc(C(=O)NC(C)(C)c2cccc(Cl)c2)cnc1-n1cnc(C)c1 [Example 15, N-[1-(3-chlorophenyl)-1-methylethyl]-6-methoxy-5-(4-methyl-1H-imidazol-1-yl)pyrazine-2-carboxamide]",1.82
16,"COc1nc(C(=O)NCC2(c3ccc(Cl)cc3)CC2)cnc1-n1cnc(C)c1 [Example 7, N-{[1-(4-Chlorophenyl)cyclopropyl]methyl}-6-methoxy-5-(4-methyl-1H-imidazol-1-yl)pyrazine-2-carboxamide]",0.591
17,"COc1nc(C(=O)NCC2CCCC2)ccc1-n1cnc(C)c1 [Example 33, N-(cyclopentylmethyl)-6-methoxy-5-(4-methyl-1H-imidazol-1-yl)pyridine-2-carboxamide]",0.726
18,"COc1cc(C(=O)N2CC[C@H](Oc3ccccc3C(F)(F)F)C2)cnc1-n1cnc(C)c1 [Example 47, 3-methoxy-2-(4-methyl-1H-imidazol-1-yl)-5-({(3S)-3-[2-(trifluoromethyl)-phenoxy]pyrrolidin-1-yl}carbonyl)pyridine]",3.44
19,"COc1cc(C(=O)NCCc2c(C)[nH]c3c(Cl)cc(Cl)cc23)ncc1-n1cnc(C)c1 [Example 21, N-[2-(5,7-dichloro-2-methyl-1H-indol-3-yl)ethyl]-4-methoxy-5-(4-methyl-1H-imidazol-1-yl)pyridine-2-carboxamide]",6.25
20,"COc1nc(C(=O)NCC(C)(C)c2ccc(F)cc2)cnc1-n1cnc(C)c1 [Example 13, N-[2-(4-fluorophenyl)-2-methylpropyl]-6-methoxy-5-(4-methyl-1H-imidazol-1-yl)pyrazine-2-carboxamide]",1.36
21,"COc1nc(C(=O)NCCc2nc3ccc(Cl)cc3o2)ccc1-n1cnc(C)c1 [Example 26, N-[2-(6-chloro-1,3-benzoxazol-2-yl)ethyl]-6-methoxy-5-(4-methyl-1H-imidazol-1-yl)pyridine-2-carboxamide]",0.524
22,"COc1nc(C(=O)NCc2ccc(OC(F)(F)F)cc2)cnc1-n1cnc(C)c1 [Example 18, 6-methoxy-5-(4-methyl-1H-imidazol-1-yl)-N-[4-(trifluoromethoxy)benzyl]-pyrazine-2-carboxamide]",5.43
